Measured values taken from patent publication US5410031A, “Nucleoside cotransporter protein cDNA” (The Regents of the University of California Office of …, priority 1992, dated 1995).
pIC50: −log10 of the molar value.

What was measured:
[1] = system: SNST1c (chimeric Na+/nucleoside cotransporter SNST1); assay: 22Na+ uptake in the presence of potential substrates in oocytes expressing SNST1c; format: cell-based, rabbit; conditions: SNST1c-injected oocytes
Protocol: (§1) Oocyte injections. Xenopus oocytes were dissected and injected, and transport was measured as described below. Stage V and VI oocytes (Dumont, J. Morphol. 136:153-180 (1972)) from Xenopus laevis (Xenopus One, Ann Arbor, Mich.) were dissected and defolliculated as described by Hediger et al., Proc. Natl. Acad. Sci. USA 84:2634-2637 (1987) and Coady et al., Arch. Biochem. Biophys. 265:73-81 (1990), both of which are incorporated by reference herein. Briefly, oocytes were hand-dissected from ovarian tissue of adult female Xenopus laevis. Individual oocytes were obtained by gentle agitation in Barth's solution (Silbernagl, Physiol. Rev. 68:912-1007 (1988)) 1.0% collagenase (to remove follicular cells) and 0.1% trypsin inhibitor for 60 min followed by a 30 to 60 min incubation in 100 mM K2 HP04, pH 6.5, 0.1% BSA (modified from Dumont, J. Morphol. 136:153-179 (1972)). Oocytes were maintained in Barth's solution at 18° C. After 16 to 24 hr, the healthy oocytes were injected with 50 nl of water or mRNA (0.2 to 1 mg/ml) and incubated in Barth's solution with gentamicin at 18° C. for another 3 to 8 days.
(§2) Na^+ /nucleoside transporter activity was assayed by measuring the Na^+ -dependent uptake by the chimeric construct, SNST1c. […] Because of the sequence similarity to SGLT1, it was hypothesized that the transport would be Na^+ -dependent. Therefore, the uptake of ^22 Na^+ in the presence of potential substrates was monitored.
(§3) Measurements were made of [^3 H] uridine uptake in oocytes expressing SNST1c (FIG. 4A and 4B). Uptakes were measured over 5 min in a buffer containing either 100 mM NaCl, choline chloride or LiCl as described by Coady et al., Arch. Biochem. Biophys. 283:130-134 (1990), incorporated by reference herein. [All of the solutions contained 2 mM KCL, 1 mM MgCl2, 1 mM CaCl2, 10 mM HEPES/Tris, pH 7.5 and either 100 mM NaCl (Na^+ transport buffer) or 100 mM choline-Cl (choline transport buffer). The uptake solutions contained radiolabeled substrate while the wash solutions contained nonradioactive substrate. Oocytes were injected with water as a control, or SNST1c cRNA (50 ng). Oocytes were preincubated for 30 min in substrate-free choline transport buffer when uptakes in Na^+ and choline were to be compared. Transport of substrate was assayed by placing 4-6 oocytes in 0.5 ml of radioactive uptake solution, preceded by a 30 min preincubation in a Na^+ -free (100 mM choline-Cl) solution when Na^+ -dependent transport was to be measured. Transport was stopped by washing the oocytes five times with 4 ml of ice-cold choline solution containing excess unlabeled substrate. The oocytes were individually dissolved in 1.0 ml of 10% SDS and assayed for radioactivity. All data are expressed as mean ±SD. FIG. 4A indicates cation dependence of 1 μM [^3 H]uridine uptake in oocytes expressing SNST1c 4 days post-injection. In addition, inhibition of 0.6 μM [^3 H] uridine uptake in oocytes by 1 mM nucleosides was determined (FIG. 4B). Uptakes were measured in Na^+ containing buffer (Coady et al., supra) Oocytes were injected with water as a control, or SNST1c cRNA (50 ng) .

[2] = system: SNST1c (chimeric Na+/nucleoside cotransporter SNST1); assay: Uptake of radiolabelled substrates in Xenopus oocytes expressing SNST1c; format: cell-based, rabbit; conditions: for transport of radiolabelled substrate by SNST1c: Xenopus oocytes injected with SNST1c RNA
Protocol: as §1, §2, §3

[3] = system: Na+/glucose cotransporter SGLT1; conditions: SGLT1-injected oocytes
Protocol: Xenopus oocytes were dissected and injected, and transport was measured as described below. […] Briefly, oocytes were hand-dissected from ovarian tissue of adult female Xenopus laevis. […] Oocytes were maintained in Barth's solution at 18° C. After 16 to 24 hr, the healthy oocytes were injected with 50 nl of water or mRNA (0.2 to 1 mg/ml) and incubated in Barth's solution with gentamicin at 18° C. for another 3 to 8 days.
[All of the solutions contained 2 mM KCL, 1 mM MgCl2, 1 mM CaCl2, 10 mM HEPES/Tris, pH 7.5 and either 100 mM NaCl (Na^+ transport buffer) or 100 mM choline-Cl (choline transport buffer). The uptake solutions contained radiolabeled substrate while the wash solutions contained nonradioactive substrate. Oocytes were injected with water as a control, or SNST1c cRNA (50 ng). […] Transport of substrate was assayed by placing 4-6 oocytes in 0.5 ml of radioactive uptake solution, preceded by a 30 min preincubation in a Na^+ -free (100 mM choline-Cl) solution when Na^+ -dependent transport was to be measured. […] The oocytes were individually dissolved in 1.0 ml of 10% SDS and assayed for radioactivity. All data are expressed as mean ±SD. […] Uptakes were measured in Na^+ containing buffer (Coady et al., supra) Oocytes were injected with water as a control, or SNST1c cRNA (50 ng) .

[4] = system: SNST1c (chimeric Na+/nucleoside cotransporter SNST1); assay: Uptake of radiolabelled substrates in Xenopus oocytes expressing SNST1c; format: cell-based, rabbit; conditions: oocytes printed as SGLT1c, n=6 oocytes
[5] = system: SNST1c (expressed Na+/nucleoside cotransporter); assay: Inhibition of [3H]uridine / radiolabeled nucleoside uptake in oocytes expressing SNST1c; format: cell-based, rabbit; conditions: for inhibition of [3H]uridine transport by SNST1c: 1 mM nucleoside, 0.6 μM [3H]uridine, Na+ containing buffer (FIG. 4B)
Protocol: as §3
Uptake of radiolabeled nucleosides into Xenopus oocytes was measured in the presence or absence of Na^+ as described above in Example 1, and in the presence and absence of 1 mM phloridzin (Sigma, St. Louis, Mo.). […]

[6] = system: Na+/glucose cotransporter protein; conditions: cited from earlier work
[7] = system: Na+/nucleoside cotransport in the kidney brush border; conditions: Lee et al. 1990; cited from earlier work
[8] = system: oocyte transporter (Na+/nucleoside cotransport in the oocyte membrane); assay: Inhibition of endogenous Na+/nucleoside cotransport in the oocyte membrane; format: cell-based, Xenopus laevis; conditions: endogenous transport of the oocyte membrane
Protocol: as §3, with “Transport was stopped by washing the oocytes five times with 4 ml of ice-cold choline solution containing excess unlabeled substrate.” left out, “FIG. 4A indicates cation dependence of 1 μM [^3 H]uridine uptake in oocytes expressing SNST1c 4 days post-injection. In addition, inhibition of 0.6 μM [^3 H] uridine uptake in oocytes by 1 mM nucleosides was determined (FIG. 4B).” left out

C[C@H](CCC(=O)O)[C@H]1CC[C@H]2[C@@H]3[C@H](O)C[C@@H]4C[C@H](O)CC[C@]4(C)[C@H]3C[C@H](O)[C@]12C [cholate]
signal of 22Na+ uptake in the presence of potential substrate [1]: no signals

C[N+](C)(C)CC(=O)O [betaine]
signal of 22Na+ uptake in the presence of potential substrate [1]: no signals

C[C@H](N)C(=O)O [alanine]
transport of radiolabelled substrate by SNST1c [2]: none of these was transported

CO[C@H]1O[C@H](CO)[C@@H](O)[C@H](O)[C@H]1O [αMDG, α-methyl-D-glucopyranose]
transport of radiolabelled substrate by SNST1c [2]: none of these was transported
signal of 22Na+ uptake in the presence of potential substrate [1]: no signals
14C-αMDG uptake ([3]; n=6 oocytes): 70±19 pmol ^14 C-αMDG/oocyte/hr
14C-αMDG uptake [4]: 0.5±0.1 pmol ^14 C-αMDG/oocyte/hr

CC(O)C(=O)O (stereo not shown) [lactate]
transport of radiolabelled substrate by SNST1c [2]: none of these was transported

O=C(O)CCCC[C@@H]1SC[C@@H]2NC(=O)N[C@@H]21 [biotin]
transport of radiolabelled substrate by SNST1c [2]: none of these was transported

Cc1ncc(C[n+]2csc(CCO)c2C)c(N)n1 [thiamine]
signal of 22Na+ uptake in the presence of potential substrate [1]: no signals

O=C(CCc1ccc(O)cc1)c1c(O)cc(O)cc1O[C@@H]1O[C@H](CO)[C@@H](O)[C@H](O)[C@H]1O [Phloridzin]
inhibition of the expressed Na+/nucleoside cotransporter ([5]; 1 mM phloridzin, n=2, Xenopus oocytes): 87%
pIC50 ([6]; mammalian intestine and kidney, competitive inhibition, read-out: concentration for fifty percent inhibition of sodium dependent sugar transport): 5.30
inhibition of Na+/nucleoside cotransport in the kidney brush border [7]: inhibits

Nc1ccn([C@H]2CC[C@@H](CO)O2)c(=O)n1 [dideoxycytidine]
inhibition of the oocyte Na+/nucleoside transporter [8]: did not inhibit

O=C(O)[C@@H]1CCCN1 [proline]
transport of radiolabelled substrate by SNST1c [2]: none of these was transported

O[C@H]1[C@H](O)[C@@H](O)[C@H](O)[C@@H](O)[C@H]1O [myoinositol]
signal of 22Na+ uptake in the presence of potential substrate [1]: no signals

O=c1ccn([C@H]2C[C@H](O)[C@@H](CO)O2)c(=O)[nH]1 [2-deoxyuridine]
inhibition of [3H]uridine transport by SNST1c [5]: inhibited

Nc1ccn([C@@H]2O[C@H](CO)[C@@H](O)[C@H]2O)c(=O)n1 [cytidine]
inhibition of [3H]uridine transport by SNST1c [5]: inhibited

NCCCC[C@H](N)C(=O)O [lysine]
transport of radiolabelled substrate by SNST1c [2]: none of these was transported

3-O-methylglucose
transport of radiolabelled substrate by SNST1c [2]: none of these was transported

NCCS(=O)(=O)O [taurine]
transport of radiolabelled substrate by SNST1c [2]: none of these was transported

O=C(O)CCC(=O)O [succinate]
transport of radiolabelled substrate by SNST1c [2]: none of these was transported

Nc1nc2c(ncn2[C@@H]2O[C@H](CO)[C@@H](O)[C@H]2O)c(=O)[nH]1 [guanosine]
inhibition of [3H]uridine transport by SNST1c [5]: inhibited

O=C(CCc1ccc(O)cc1)c1c(O)cc(O[C@@H]2O[C@H](CO)[C@@H](O)[C@H](O)[C@H]2O)cc1O [4' glycoside]
activity as inhibitor of glucose transport ([6]; Diedrich 1990): inactive

Nc1ncnc2c1ncn2[C@@H]1O[C@H](CO)[C@@H](O)[C@H]1O [adenosine]
inhibition of [3H]uridine transport by SNST1c [5]: inhibited

N[C@@H](Cc1ccccc1)C(=O)O [phenylalanine]
transport of radiolabelled substrate by SNST1c [2]: none of these was transported

CNC(C)(C)C(=O)O [methyl-aminoisobutyric acid]
transport of radiolabelled substrate by SNST1c [2]: none of these was transported

O=c1ccn([C@@H]2O[C@H](CO)[C@@H](O)[C@H]2O)c(=O)[nH]1 [uridine]
3H-uridine uptake ([2]; SNST1c-injected oocytes, n=5 oocytes): 722±108 fmol ^3 H-uridine/oocyte/hr
transport of radiolabelled substrate by SNST1c [2]: transported
inhibition of [3H]uridine transport by SNST1c [5]: inhibited
3H-uridine uptake ([3]; n=5 oocytes): 309±78 fmol ^3 H-uridine/oocyte/hr
